Test results from patent US20200318079A1, “ACTIVITY-DEPENDENT EXPRESSION CONSTRUCTS AND METHODS OF USING THE SAME” (The Board of Trustees of the Leland Stanford Junior …, priority 2016, published 2020).

Test system: c-Fos regulatory region
Assay: Activity-dependent expression of a reporter driven by c-Fos regulatory regions
Details: comparison of three regulatory regions
From the text: The activity-dependent expression of a reporter construct driven by a regulatory region containing 761 bp of 5′ mouse c-Fos non-coding sequence, mouse c-Fos exon 1 and mouse c-Fos intron 1, as depicted in FIG. 9 (SEQ ID NO:7) was compared to: (1) the activity-dependent expression of the same reporter driven by the c-Fos 5′-non-coding sequence depicted in FIG. 10 (SEQ ID NO:1) and (2) the activity-dependent expression of the same reporter driven by the entire c-Fos gene followed by an IRES as depicted in FIG. 11 (SEQ ID NO:29).

SEQ ID NO:7: reporter driven by regulatory region containing 761 bp of 5′ mouse c-Fos non-coding sequence, mouse c-Fos exon 1 and intron 1
activity-dependent expression of the reporter: best for high, non-leaky expression
